Assay results as given in publication PMC5069662, “Transient Induced Molecular Electronic Spectroscopy (TIMES) for study of protein-ligand interactions” (Scientific Reports, 2016).

Target: T1, Thermolysin (Bacillus thermoproteolyticus, UniProt P00800)
T1 construct: gene npr
Experiment: TIMES (label-free, immobilization-free microfluidic electronic detection), […] Tris-HCl buffer pH […]
Assay type: binding
Conditions: read-out: Measured KD from TIMES

T1 sequence (P00800 233-548): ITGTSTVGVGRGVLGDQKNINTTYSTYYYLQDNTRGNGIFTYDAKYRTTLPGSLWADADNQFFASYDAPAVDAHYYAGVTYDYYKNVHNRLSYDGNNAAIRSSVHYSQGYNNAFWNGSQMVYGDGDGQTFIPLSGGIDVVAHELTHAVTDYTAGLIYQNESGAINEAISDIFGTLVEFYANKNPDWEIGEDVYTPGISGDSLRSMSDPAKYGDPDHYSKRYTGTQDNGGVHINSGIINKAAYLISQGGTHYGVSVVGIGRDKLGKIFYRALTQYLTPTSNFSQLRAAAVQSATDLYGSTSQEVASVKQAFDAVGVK

CC(C)C[C@H](NP(=O)(O)O[C@@H]1O[C@@H](C)[C@H](O)[C@@H](O)[C@H]1O)C(=O)N[C@@H](Cc1c[nH]c2ccccc12)C(=O)O [phosphoramidon]
Kd: 0.0321 ± 0.0019 µM
